Source: BindingDB's records for doi:10.1021/jm00013a009 (Sandoz Pharma, 1995)

Test: Compound was evaluated for the binding affinity at 5- HT1A receptor

N=C(N)NN=Cc1c[nH]c2ccc(O)cc12 [(2E)-2-[(5-hydroxy-1H-indol-3-yl)methylene]hydrazinecarboximidamide]
Ki: 63 nM
